“And” between values parts separate entries of the source, which are not always exact repeats. Equal entries are not always repeated. Where two headings read alike, the source gives them in different places.
Columns and labels:
Format in all cases: cell-based
[1] = molecular target: T1, protein kinases (human kinome) (Homo sapiens, UniProt O15197); conditions: for logFC: EPHB6 (O15197-1)
T1 sequence (O15197 32-1021): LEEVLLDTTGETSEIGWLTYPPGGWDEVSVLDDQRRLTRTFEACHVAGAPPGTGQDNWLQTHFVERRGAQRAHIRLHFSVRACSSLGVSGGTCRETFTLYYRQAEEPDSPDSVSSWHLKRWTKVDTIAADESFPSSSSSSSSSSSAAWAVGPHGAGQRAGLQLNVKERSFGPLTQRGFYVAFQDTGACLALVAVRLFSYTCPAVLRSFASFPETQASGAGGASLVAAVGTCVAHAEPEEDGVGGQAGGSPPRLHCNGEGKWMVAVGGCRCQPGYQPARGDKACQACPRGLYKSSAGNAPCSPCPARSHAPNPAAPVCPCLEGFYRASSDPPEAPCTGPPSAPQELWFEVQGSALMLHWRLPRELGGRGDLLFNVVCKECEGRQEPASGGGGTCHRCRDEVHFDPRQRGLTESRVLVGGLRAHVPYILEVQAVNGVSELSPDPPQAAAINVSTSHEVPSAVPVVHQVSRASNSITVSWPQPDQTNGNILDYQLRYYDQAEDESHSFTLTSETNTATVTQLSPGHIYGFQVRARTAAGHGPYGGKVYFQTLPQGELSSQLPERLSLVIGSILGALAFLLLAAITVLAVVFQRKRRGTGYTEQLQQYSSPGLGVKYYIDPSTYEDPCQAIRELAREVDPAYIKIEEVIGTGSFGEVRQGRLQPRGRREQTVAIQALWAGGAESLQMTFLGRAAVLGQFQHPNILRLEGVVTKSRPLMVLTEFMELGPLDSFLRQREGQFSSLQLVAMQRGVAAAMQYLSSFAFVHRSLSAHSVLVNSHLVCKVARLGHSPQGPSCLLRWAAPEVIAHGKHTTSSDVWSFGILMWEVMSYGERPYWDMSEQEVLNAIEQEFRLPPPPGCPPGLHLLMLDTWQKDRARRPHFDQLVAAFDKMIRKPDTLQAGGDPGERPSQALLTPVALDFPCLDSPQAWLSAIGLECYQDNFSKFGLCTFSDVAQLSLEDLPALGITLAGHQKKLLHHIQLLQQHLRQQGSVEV

[2] = molecular target: T2, protein kinases (human kinome) (Homo sapiens, UniProt Q13546)
T2 sequence (Q13546 1-671): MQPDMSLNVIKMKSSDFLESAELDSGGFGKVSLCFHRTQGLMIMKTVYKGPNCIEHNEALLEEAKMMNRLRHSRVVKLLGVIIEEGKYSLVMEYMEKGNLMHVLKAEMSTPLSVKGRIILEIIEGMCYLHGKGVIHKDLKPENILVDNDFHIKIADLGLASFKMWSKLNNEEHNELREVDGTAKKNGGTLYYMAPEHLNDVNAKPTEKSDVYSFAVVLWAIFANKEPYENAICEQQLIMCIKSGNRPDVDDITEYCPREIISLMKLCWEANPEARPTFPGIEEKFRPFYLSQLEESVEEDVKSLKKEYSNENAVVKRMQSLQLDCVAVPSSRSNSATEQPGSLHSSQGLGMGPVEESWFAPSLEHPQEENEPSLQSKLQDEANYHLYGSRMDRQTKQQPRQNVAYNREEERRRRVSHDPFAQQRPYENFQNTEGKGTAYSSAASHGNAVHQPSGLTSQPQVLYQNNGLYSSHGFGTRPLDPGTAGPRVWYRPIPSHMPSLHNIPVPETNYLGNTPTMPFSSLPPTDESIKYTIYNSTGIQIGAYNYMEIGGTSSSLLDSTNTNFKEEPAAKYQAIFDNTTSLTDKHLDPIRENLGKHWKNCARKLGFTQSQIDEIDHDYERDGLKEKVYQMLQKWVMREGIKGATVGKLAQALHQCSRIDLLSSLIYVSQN

[3] = molecular target: protein kinases (human kinome) (Homo sapiens, UniProt P21127)
[4] = molecular target: protein kinases (human kinome) (Homo sapiens, UniProt Q9NSY1); conditions: BMP2K Q9NSY1
[5] = molecular target: T3, protein kinases (human kinome) (Homo sapiens, UniProt Q16854); conditions: DGUOK (Q16854)
T3 sequence (Q16854 40-277): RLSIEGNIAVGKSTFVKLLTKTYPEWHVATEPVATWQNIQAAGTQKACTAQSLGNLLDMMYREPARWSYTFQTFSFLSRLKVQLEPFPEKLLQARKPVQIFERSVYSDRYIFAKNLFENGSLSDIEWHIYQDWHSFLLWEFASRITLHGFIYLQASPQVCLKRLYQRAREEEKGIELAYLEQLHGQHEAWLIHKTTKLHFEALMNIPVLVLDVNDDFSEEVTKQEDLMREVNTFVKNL

[6] = CDK11B P21127-1, experiment wp045
[7] = CDK11B P21127-1, experiment wp105
[8] = CDK11B P21127-1, experiment wp117
[9] = CDK11B P21127-1, experiment wp160, 4 hr
[10] = CDK11B P21127-1, experiment wp160, 8 hr
[11] = CDK11B P21127-1, experiment wp172
[12] = CDK11B P21127-1, experiment wp168

protein kinases (human kinome) (Homo sapiens, UniProt Q9NSY1), sequence (Q9NSY1 whole entry): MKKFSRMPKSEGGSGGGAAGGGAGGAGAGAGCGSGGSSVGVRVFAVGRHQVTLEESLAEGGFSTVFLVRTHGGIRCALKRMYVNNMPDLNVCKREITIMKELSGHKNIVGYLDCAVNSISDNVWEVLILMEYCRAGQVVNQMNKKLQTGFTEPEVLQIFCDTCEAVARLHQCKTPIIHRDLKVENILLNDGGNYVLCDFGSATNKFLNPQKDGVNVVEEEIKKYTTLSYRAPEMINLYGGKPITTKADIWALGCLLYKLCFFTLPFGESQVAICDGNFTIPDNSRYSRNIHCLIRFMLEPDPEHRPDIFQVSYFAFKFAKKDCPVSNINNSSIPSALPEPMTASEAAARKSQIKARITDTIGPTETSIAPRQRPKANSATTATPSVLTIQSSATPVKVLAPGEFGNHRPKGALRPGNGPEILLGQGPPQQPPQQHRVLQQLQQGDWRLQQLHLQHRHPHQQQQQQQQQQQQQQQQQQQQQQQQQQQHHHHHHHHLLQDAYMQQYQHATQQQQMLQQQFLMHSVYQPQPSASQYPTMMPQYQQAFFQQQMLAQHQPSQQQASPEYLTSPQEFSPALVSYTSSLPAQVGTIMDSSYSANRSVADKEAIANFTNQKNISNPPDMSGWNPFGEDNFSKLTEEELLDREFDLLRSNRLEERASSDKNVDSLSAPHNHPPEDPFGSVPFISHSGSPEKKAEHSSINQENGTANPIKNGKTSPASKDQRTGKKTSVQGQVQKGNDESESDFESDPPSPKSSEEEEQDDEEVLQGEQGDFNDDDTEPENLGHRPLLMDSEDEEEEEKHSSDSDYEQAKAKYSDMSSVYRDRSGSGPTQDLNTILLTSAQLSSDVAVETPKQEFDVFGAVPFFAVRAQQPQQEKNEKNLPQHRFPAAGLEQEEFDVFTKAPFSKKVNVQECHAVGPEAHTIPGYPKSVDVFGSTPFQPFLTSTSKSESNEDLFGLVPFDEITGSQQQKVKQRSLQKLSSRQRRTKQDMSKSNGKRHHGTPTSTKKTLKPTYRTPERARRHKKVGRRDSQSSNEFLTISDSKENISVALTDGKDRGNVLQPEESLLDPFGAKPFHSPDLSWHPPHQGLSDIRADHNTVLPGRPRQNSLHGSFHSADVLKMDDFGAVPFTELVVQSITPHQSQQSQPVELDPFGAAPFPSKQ
protein kinases (human kinome) (Homo sapiens, UniProt P21127), sequence (P21127 whole entry): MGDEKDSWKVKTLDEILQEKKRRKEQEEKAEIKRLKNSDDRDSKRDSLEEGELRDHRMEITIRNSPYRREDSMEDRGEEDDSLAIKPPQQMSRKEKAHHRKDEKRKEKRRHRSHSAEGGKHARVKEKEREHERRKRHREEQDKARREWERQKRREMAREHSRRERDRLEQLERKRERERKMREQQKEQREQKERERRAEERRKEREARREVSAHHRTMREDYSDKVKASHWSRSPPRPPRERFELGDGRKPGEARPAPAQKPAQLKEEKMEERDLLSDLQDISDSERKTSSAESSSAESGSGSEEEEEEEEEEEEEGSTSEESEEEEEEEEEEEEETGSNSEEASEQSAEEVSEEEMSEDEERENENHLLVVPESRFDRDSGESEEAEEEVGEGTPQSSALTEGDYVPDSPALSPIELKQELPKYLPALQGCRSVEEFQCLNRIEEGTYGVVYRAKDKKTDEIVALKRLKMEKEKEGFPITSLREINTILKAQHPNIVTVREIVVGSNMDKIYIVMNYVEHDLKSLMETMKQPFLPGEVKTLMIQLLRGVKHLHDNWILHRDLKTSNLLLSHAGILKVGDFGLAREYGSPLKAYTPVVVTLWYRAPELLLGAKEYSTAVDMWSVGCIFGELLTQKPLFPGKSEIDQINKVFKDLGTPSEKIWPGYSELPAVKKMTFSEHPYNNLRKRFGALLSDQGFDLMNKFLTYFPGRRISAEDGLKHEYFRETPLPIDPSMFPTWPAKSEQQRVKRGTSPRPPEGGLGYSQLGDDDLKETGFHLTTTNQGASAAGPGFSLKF

SMILES: Cc1ccc(NC(=O)c2cccc(C(F)(F)F)c2)cc1N1Cc2cnc(Nc3ccc(N4CCN(Cc5cn(CCCCCOc6cccc7c6C(=O)N(C6CCC(=O)NC6=O)C7=O)nn5)CC4)nc3)nc2N(C)C1=O (stereo not shown) [DB0646, N-(3-(7-((6-(4-((1-(5-((2-(2,6-Dioxopiperidin-3-yl)-1,3-dioxoisoindolin-4-yl)oxy)pentyl)-1H-1,2,3-triazol-4-yl)methyl)piperazin-1-v)pyridin-3-yl)amino)-1-methyl-2-oxo-1,4-dihydropyrimido[4,5-d]pyrimidin-3(2H)-yl)-4-methylphenyl)-3-(trifluoromethyl)benzamide]
- logFC ([1]; experiment wp160, 4 hr): −0.3396
- logFC ([1]; experiment wp160, 8 hr): −0.6548
- logFC of EPHB6 (O15197-1) ([1]; experiment wp160, 4 hr): −0.3396
- logFC of EPHB6 (O15197-1) ([1]; experiment wp160, 8 hr): −0.6548
- logFC RIPK1 (Q13546) ([2]; experiment wp045): −0.7115
- logFC RIPK1 (Q13546) ([2]; experiment wp103): −0.4796
- logFC RIPK1 (Q13546) ([2]; experiment wp105): −0.4233
- logFC RIPK1 (Q13546) ([2]; experiment wp107): −0.5121
- logFC RIPK1 (Q13546) ([2]; experiment wp117): −0.616
- logFC RIPK1 (Q13546) ([2]; experiment wp152): −0.5495
- logFC RIPK1 (Q13546) ([2]; experiment wp160, 4 hr): −0.3907
- logFC RIPK1 (Q13546) ([2]; experiment wp160, 8 hr): −0.8745
- logFC [3, 6]: −0.4555
- logFC CDK11B [3, 6]: −0.4555
- logFC [3, 7]: −0.3542
- logFC CDK11B [3, 7]: −0.3542
- logFC [3, 8]: −0.4695
- logFC CDK11B [3, 8]: −0.4695
- logFC [3, 9]: −0.5122
- logFC CDK11B [3, 9]: −0.5122
- logFC [3, 10]: −0.644
- logFC CDK11B [3, 10]: −0.644
- logFC [3, 11]: −0.4624
- logFC CDK11B [3, 11]: −0.4624
- logFC ([3]; CDK11B P21127, experiment wp152): −0.5948
- logFC of CDK11B (P21127) ([3]; experiment wp152): −0.5948

SMILES: CS(=O)(=O)Nc1cccc(-c2csc3cnc(Nc4ccc(N5CCN(CCCCCOc6cccc7c6C(=O)N(C6CCC(=O)NC6=O)C7=O)CC5)cc4)nc23)c1 (stereo not shown) [DB0614, N-(3-(2-((4-(4-(5-((2-(2,6-Dioxopiperidin-3-yl)-1,3-dioxoisoindolin-4-yl)oxy)pentyl)piperazin-1-yl)phenyl)amino)thieno[3,2-d]pyrimidin-7-yl)phenyl)methanesulfonamide]
- logFC ([4]; experiment wp045): −0.3909
- logFC BMP2K ([4]; experiment wp045): −0.3909

SMILES: C=CCn1c(=O)c2cnc(Nc3ccc(N4CCN(CCCNc5cccc6c5C(=O)N(C5CCC(=O)NC5=O)C6=O)CC4)cc3)nc2n1-c1cccc(C(C)(C)O)n1 (stereo not shown) [ZNL.02.096]
- logFC ([5]; experiment wp118): −0.5337

SMILES: Cc1ccc(C(=O)Nc2ccc(CN3CCN(CCCOCCOCCOCCNC(=O)COc4cccc5c4C(=O)N(C4CCC(=O)NC4=O)C5=O)CC3)c(C(F)(F)F)c2)cc1C#Cc1cnc2cccnn12 (stereo not shown) [SB1.G.187]
- logFC RIPK1 (Q13546) ([2]; Experiment wp172): −0.9666 and −0.9656
- logFC RIPK1 (Q13546) ([2]; experiment wp056): −1.288
- logFC RIPK1 (Q13546) ([2]; experiment wp103): −1.767
- logFC RIPK1 (Q13546) ([2]; experiment wp105): −1.141
- logFC RIPK1 (Q13546) ([2]; experiment wp107): −1.502

SMILES: CN(C)C(=O)c1cc2cnc(Nc3ccc(N4CCN(CCCCNC(=O)COc5cccc6c5C(=O)N(C5CCC(=O)NC5=O)C6=O)CC4)cn3)nc2n1C1CCCC1 (stereo not shown) [BSJ.04.132]
- logFC ([5]; experiment wp084): −0.5254

SMILES: CC(=O)c1c(C)c2cnc(Nc3ccc(N4CCN(CCOCCOCCOCCNC(=O)COc5cccc6c5C(=O)N(C5CCC(=O)NC5=O)C6=O)CC4)cn3)nc2n(C2CCCC2)c1=O (stereo not shown) [BSJ.03.123]
- logFC ([5]; experiment wp084): −0.4377

SMILES: O=C(COc1cccc2c1C(=O)N(C1CCC(=O)NC1=O)C2=O)NCCCCCCCN1CCc2cc(Nc3ncc(C4CC4)c(NCCCNC(=O)C4CCC4)n3)ccc2C1 (stereo not shown) [BSJ.04.178]
- logFC ([4]; experiment wp134): −0.6929
- logFC BMP2K ([4]; experiment wp134): −0.6929

SMILES: Cc1ccc(NC(=O)c2cccc(C(F)(F)F)c2)cc1N1Cc2cnc(Nc3ccc(N4CCN(CCCCC(=O)N[C@H](C(=O)N5C[C@H](O)C[C@H]5C(=O)N[C@@H](C)c5ccc(-c6scnc6C)cc5)C(C)(C)C)CC4)nc3)nc2N(C)C1=O [DB1113]
- logFC RIPK1 (Q13546) ([2]; experiment wp168): −1.99
- logFC [3, 12]: −0.8736
- logFC CDK11B [3, 12]: −0.8736

SMILES: CC(C)S(=O)(=O)c1ccccc1Nc1nc(Nc2ccc(N3CCN(CCOCCNC(=O)CNc4ccc5c(c4)C(=O)N(C4CCC(=O)NC4=O)C5=O)CC3)cc2)ncc1Cl (stereo not shown) [SK.3.93]
- logFC ([4]; experiment wp016): −0.4575
- logFC BMP2K ([4]; experiment wp016): −0.4575

SMILES: CC(C)S(=O)(=O)c1ccccc1Nc1nc(Nc2ccc(N3CCN(CCOCCNC(=O)CNc4cccc5c4C(=O)N(C4CCC(=O)NC4=O)C5=O)CC3)cc2)ncc1Cl (stereo not shown) [SK.3.91]
- logFC ([4]; experiment wp016): −0.4706
- logFC BMP2K ([4]; experiment wp016): −0.4706
- logFC ([4]; experiment wp105): −0.4043
- logFC BMP2K ([4]; experiment wp105): −0.4043

SMILES: Cc1ccc(NC(=O)c2cccc(C(F)(F)F)c2)cc1N1Cc2cnc(Nc3ccc(N4CCN(CCCOc5cccc6c5C(=O)N(C5CCC(=O)NC5=O)C6=O)CC4)nc3)nc2N(C)C1=O (stereo not shown) [DB0662]
- logFC ([1]; experiment wp168): −0.736
- logFC of EPHB6 (O15197-1) ([1]; Experiment wp168): −0.736
- logFC [3, 12]: −0.5946
- logFC CDK11B [3, 12]: −0.5946

SMILES: Cn1c(=O)c(-c2c(Cl)cccc2Cl)cc2cnc(Nc3ccc(OCCNC(=O)CCCCCCNC(=O)COc4cccc5c4C(=O)N(C4CCC(=O)NC4=O)C5=O)cc3)nc21 (stereo not shown) [SB1.G.192.1]
- logFC ([1]; experiment wp071): −0.6259
- logFC ([1]; experiment wp131): −0.5189
- logFC of EPHB6 (O15197-1) ([1]; experiment wp071): −0.6259
- logFC of EPHB6 (O15197-1) ([1]; experiment wp131): −0.5189

SMILES: Cc1ccc(C(=O)Nc2ccc(CN3CCN(CCOCCOCCNC(=O)CNc4cccc5c4C(=O)N(C4CCC(=O)NC4=O)C5=O)CC3)c(C(F)(F)F)c2)cc1C#Cc1cnc2cccnn12 (stereo not shown) [TL13.150]
- logFC RIPK1 (Q13546) ([2]; experiment wp081): −0.667

SMILES: Cc1cnc(Nc2ccc(N3CCN(CCOCCOCCNC(=O)COc4cccc5c4C(=O)N(C4CCC(=O)NC4=O)C5=O)CC3)cc2)nc1Nc1cccc(S(=O)(=O)NC(C)(C)C)c1 (stereo not shown) [JWG.118]
- logFC ([4]; experiment wp071): −0.3528
- logFC BMP2K ([4]; experiment wp071): −0.3528
